Test results from PMC9310846, “Photoaffinity Capture Compounds to Profile the Magic Spot Nucleotide Interactomes” (Angewandte Chemie (International Ed. in English), 2022).

Experiments:
[1] = biological target: T1, ApaH (bis(5′‐nucleosyl)‐tetraphosphatase) (Escherichia coli, UniProt P05637); test: LC-MS assay of Ap4A hydrolysis by […] ApaH; pppGpp is also hydrolysed to pGpp (KM […]); assay type: biochemical
T1 sequence (P05637 1-280): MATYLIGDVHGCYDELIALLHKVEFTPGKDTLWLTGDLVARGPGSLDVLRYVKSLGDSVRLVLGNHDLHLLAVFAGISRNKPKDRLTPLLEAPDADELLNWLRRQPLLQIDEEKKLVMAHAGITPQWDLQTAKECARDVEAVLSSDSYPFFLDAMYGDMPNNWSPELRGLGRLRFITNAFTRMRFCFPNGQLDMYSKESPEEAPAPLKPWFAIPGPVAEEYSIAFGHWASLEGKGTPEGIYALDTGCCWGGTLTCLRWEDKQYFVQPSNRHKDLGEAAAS

[2] = biological target: T1, ApaH (bis(5′‐nucleosyl)‐tetraphosphatase); test: LC-MS assay of Ap4A hydrolysis by […] ApaH; assay type: biochemical
[3] = biological target: T1, ApaH (bis(5′‐nucleosyl)‐tetraphosphatase); test: inhibition of Ap4A hydrolysis by ApaH; pGpp is also the product of pppGpp cleavage; assay type: biochemical
purified protein = substrate: Nc1nc2c(ncn2[C@@H]2O[C@H](COP(=O)(O)OP(=O)(O)OP(=O)(O)O)[C@@H](O)[C@H]2O)c(=O)[nH]1; test: purified protein; assay type: biochemical, Escherichia coli; details: Co2+

**Q.** With `Nc1nc2c(ncn2[C@@H]2O[C@H](COP(=O)(O)OP(=O)(O)OP(=O)(O)O)[C@@H](OP(=O)(O)OP(=O)(O)O)[C@H]2O)c(=O)[nH]1` [pppGpp] as the molecule, how does the IC50 [1] read?
**A.** 8 ± 3 µM

**Q.** How did the IC50 [2] turn out when `Nc1nc2c(ncn2[C@@H]2O[C@H](COP(=O)(O)OP(=O)(O)O)[C@@H](OP(=O)(O)OP(=O)(O)O)[C@H]2O)c(=O)[nH]1` [ppGpp] was run?
**A.** 21 ± 7 µM

**Q.** How did the IC50 [3] turn out when `Nc1nc2c(ncn2[C@@H]2O[C@H](COP(=O)(O)O)[C@@H](OP(=O)(O)OP(=O)(O)O)[C@H]2O)c(=O)[nH]1` [pGpp] was run?
**A.** 190 ± 30 µM

B1: ApaH (bis(5′‐nucleosyl)‐tetraphosphatase) (Escherichia coli K-12) (protein)
chain: T1 sequence (P05637 1-280)
**Q.** With B1 as the molecule, how does the Km (purified protein) read?
**A.** 13 ± 5 µM
